The values that follow come from patent US9605025B2, “Antagonist peptide of the bond between CD47 and a protein belonging to the thrombospondin family” (Universite de Reims Champagne Ardenne, priority 2011, dated 2017).

In assay [1] the target is T1, TSP1/CD47 complexes (Homo sapiens, UniProt P07996).
T1 construct: endogenous in cells; host or cells: MDA-MB-231 breast cancer cells
Kind of assay: immunoprecipitation of TSP1/CD47 complexes with anti-CD47 antibody and Western Blot in MDA-MB-231 cells. Format: cell-based. The note with it: MDA-MB-231 breast cancer cells, 100 μM peptide. The method, then:
FIG. 5 is a photo illustration showing the inhibition of the biomolecular interaction between the TSP1 and the CD47 receptor of the MDA-MB-231 breast cancer cells. The cells are incubated for 2 hours with […] 100 μM of the antagonist peptide according to the invention. The TSP1/CD47 complexes are then immunoprecipitated using an anti-CD47 antibody, then the presence of TSP1 and CD47 is analyzed using the Western Blot technique.
Thus, MDA-MB-231 cells corresponding to cells from a breast cancer were incubated for 24 hours with or without the dodecapeptide according to this invention. In particular, the peptide used was the one with sequence:
Immunoprecipitation of the complexes, with an antibody directed against the CD47, then an analysis of the TSP1 and CD47 proteins by the Western Blot method were then done.

Assay [2] deals with thyroid carcinoma cells (FTC-133). Kind of assay: viability of FTC-133 thyroid carcinoma cells treated with camptothecin or doxorubicin. Format: cell-based, human. To be noted: FTC-133, 5 μM camptothecin or doxorubicin; for viability of the tumor cells: 100 μM peptide. The method, then:
FIG. 2 is a graph illustration showing the role of the peptide 4N1 (KRFYVVMWK (SEQ ID NO: 5), derived from the C-terminal domain of TSP1, and the CD47 receptor on the regulation of apoptosis induced by camptothecin (Cpt) or doxorubicin (Dox). To achieve this, thyroid carcinoma cells (FTC-133) were incubated with 5 μM of one or other of the drugs and 100 μM of test peptide 4N1 with or without B6H12 antibody (100 μg/mL) blocking the CD47 receptor. The same experiment was performed with a control peptide 4NGG (KRFYGGMWK SEQ ID NO:6), which is incapable of binding the CD47.
The inventors therefore sought to understand the role of the peptide 4N1 and the CD47 receptor in the inhibition of the apoptosis of cancer cells, and in particular the FTC-133 cells of human thyroid carcinoma (Rath et al., 2006).

Assay [3] has as its system B16-F1 mouse melanoma. Kind of assay: B16-F1 mouse melanoma model in syngeneic C57Bl/6 mice. Format: in vivo. The method, then:
FIG. 6 is a photo illustration showing the action of the cyclized antagonist peptide on mouse melanoma cells. After a subcutaneous injection of 250,000 B16-F1 mouse melanoma cells into syngeneic C57Bl/6 mice, intraperitoneal administrations of 10 mg/kg of the antagonist were given on days 3, 5 and 7. The mice were then sacrificed and the tumors photographed on day 20.
FIG. 7 is a photo illustration corresponding to an MRI analysis of an untreated tumor (on the left) and a tumor treated with the cyclized peptide of interest on day 12. An arrow points to the necrotic area.
was also tested directly in vivo on a B16-F1 mouse melanoma model injected into syngeneic C57Bl/6 mice.
FIG. 7 allows a comparison, thanks to a magnetic resonance imaging (RMI) analysis, of the tumor taken from the animal not treated with the tumor taken from the animal treated with the cyclized peptide by means of a disulfide bridge on day 12 after the injection of the tumor cells.

In assay [4] the test system is follicular thyroid carcinoma cells. Kind of assay: caspase-3 activity (marker of apoptosis) in follicular thyroid carcinoma cells treated with camptothecin or doxorubicin. Format: cell-based, human. To be noted: in the presence of doxorubicin or camptothecin, with vs without TSP1. As for the experimental part: FIG. 1 is a graph illustration showing the caspase-3 activity, a marker of apoptosis, obtained by measuring the quantity of para-nitroaniline released per hour per μg of protein (y-axis). The caspase-3 activity is measured on follicular thyroid carcinoma cells in the presence of an anticancer molecule inducing apoptosis, camptothecin (Cpt) or doxorubicin (Dox) in the presence or absence of TSP1.
The latter therefore reduces the rate of apoptosis of the thyroid carcinoma cells subjected to an anti-cancer therapy.

T1 sequence (P07996 19-1170, one chain of several): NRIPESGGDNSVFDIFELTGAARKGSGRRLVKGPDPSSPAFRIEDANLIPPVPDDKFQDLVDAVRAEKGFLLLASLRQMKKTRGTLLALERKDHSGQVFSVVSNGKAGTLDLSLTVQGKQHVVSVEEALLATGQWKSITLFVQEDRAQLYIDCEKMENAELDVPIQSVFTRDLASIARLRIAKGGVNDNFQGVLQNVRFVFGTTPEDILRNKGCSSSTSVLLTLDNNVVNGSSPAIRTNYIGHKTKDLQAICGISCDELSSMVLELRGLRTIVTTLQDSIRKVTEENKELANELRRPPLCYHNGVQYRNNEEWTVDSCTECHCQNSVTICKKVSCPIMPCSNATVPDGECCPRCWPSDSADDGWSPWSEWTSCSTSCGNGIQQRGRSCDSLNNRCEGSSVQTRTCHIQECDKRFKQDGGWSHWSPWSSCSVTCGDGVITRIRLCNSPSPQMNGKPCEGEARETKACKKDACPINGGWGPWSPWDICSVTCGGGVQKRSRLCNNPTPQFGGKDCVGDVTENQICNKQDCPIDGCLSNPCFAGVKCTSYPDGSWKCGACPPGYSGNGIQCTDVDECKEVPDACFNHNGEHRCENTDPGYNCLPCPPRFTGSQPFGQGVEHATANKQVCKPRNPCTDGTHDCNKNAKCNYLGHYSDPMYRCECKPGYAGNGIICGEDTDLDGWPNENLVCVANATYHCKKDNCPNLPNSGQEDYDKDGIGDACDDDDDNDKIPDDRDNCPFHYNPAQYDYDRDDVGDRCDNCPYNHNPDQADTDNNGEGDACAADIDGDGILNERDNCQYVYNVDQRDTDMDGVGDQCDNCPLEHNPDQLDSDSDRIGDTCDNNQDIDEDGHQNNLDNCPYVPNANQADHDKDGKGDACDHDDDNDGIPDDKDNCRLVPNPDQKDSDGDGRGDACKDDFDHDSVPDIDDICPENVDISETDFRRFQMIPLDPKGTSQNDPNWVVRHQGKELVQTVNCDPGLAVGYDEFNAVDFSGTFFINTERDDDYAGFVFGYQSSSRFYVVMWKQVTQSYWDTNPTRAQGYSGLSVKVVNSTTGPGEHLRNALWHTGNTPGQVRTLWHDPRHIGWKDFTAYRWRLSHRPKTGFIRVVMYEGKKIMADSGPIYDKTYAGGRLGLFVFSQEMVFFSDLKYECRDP

Regarding “IEVSQLLKGDAS (Antagonist peptide of the bond between a receptor CD47 and a protein belonging to the thrombospondin family) [SEQ ID NO: 1]”, in assay [1], the “TSP1 detected by Western Blot after immunoprecipitation with anti-CD47 antibody (TSP1/CD47 interaction)” value is “TSP1 is no longer detected”. Consider KRFYVVMWK [4N1], for which the “viability of the tumor cells” value in assay [2] is given as “viability of the tumor cells is greater”. In assay [2] (100 μM peptide plus B6H12 antibody (100 μg/mL) blocking CD47), the “protection of the tumor cells against the anti-cancer drugs” value is on record as “no longer protects the tumor cells”.

On to CEVSQLLKGDAC [SEQ ID NO: 2], for which, in assay [1], the “TSP1 detected by Western Blot after immunoprecipitation with anti-CD47 antibody (TSP1/CD47 interaction)” value is “prevents the molecular interaction between the TSP1 protein and the CD47 receptor”. Besides, the “mice showing a large necrotic area located in the tumor” value in assay [3] (10 mg/kg intraperitoneal on days 3, 5 and 7, tumors on day 20) was 4/8. Besides, the “necrotic area in the tumor by MRI analysis” value in assay [3] (day 12 after the injection of the tumor cells) is given as “has a necrotic area”. Turning to KRFYGGMWK [4NGG], the “viability of the tumor cells” value in assay [2] is listed as “does not have any effect”. For the substance “TSP1: thrombospondin-1, extracellular matrix glycoprotein binding the CD47 receptor”, in assay [4], the “caspase-3 activity (para-nitroaniline released per hour per μg of protein)” value is “inhibited considerably”.
